“And” between values parts separate entries of the source, which are not always exact repeats. Equal values may be shown once.
How the values were obtained:
[1] = molar heat capacity at constant pressure; conditions: 101.33 kPa, Small sample (50 mg) DSC
[2] = Molar enthalpy of transition or fusion; conditions: DSC
[3] = DTA

c1ccc2cc3cc4ccccc4cc3cc2c1 [2,3-benzanthracene]
[1]
Conditions | molar heat capacity at constant pressure
258.1 K, Crystal 3 | 218.8 J/K/mol and 220.8 J/K/mol and 219.3 J/K/mol
268.3 K, Crystal 3 | 230.5 J/K/mol [middle of 4 runs]
278.5 K, Crystal 3 | 240.6 J/K/mol [middle of 4 runs]
288.7 K, Crystal 3 | 250.4 J/K/mol [middle of 4 runs]
298.9 K, Crystal 3 | 260.8 J/K/mol [middle of 4 runs]
299.3 K, Crystal 3 | 260.9 J/K/mol
309.1 K, Crystal 3 | 269.7 J/K/mol [middle of 4 runs]
309.3 K, Crystal 3 | 270.1 J/K/mol
319.2 K, Crystal 3 | 280.1 J/K/mol
319.4 K, Crystal 3 | 278 J/K/mol [middle of 4 runs]
329.1 K, Crystal 3 | 286.4 J/K/mol
329.6 K, Crystal 3 | 287.1 J/K/mol [middle of 4 runs]
339.1 K, Crystal 3 | 295.8 J/K/mol
339.8 K, Crystal 3 | 296.6 J/K/mol and 295.5 J/K/mol and 295.4 J/K/mol
349 K, Crystal 3 | 307.1 J/K/mol and 303.7 J/K/mol
350 K, Crystal 3 | 304.2 J/K/mol [middle of 4 runs]
359 K, Crystal 3 | 312.4 J/K/mol and 314.7 J/K/mol
368.9 K, Crystal 3 | 324.2 J/K/mol and 319.7 J/K/mol
378.9 K, Crystal 3 | 330.2 J/K/mol and 332.5 J/K/mol
388.8 K, Crystal 3 | 341.4 J/K/mol
408.7 K, Crystal 2 | 357.6 J/K/mol
418.6 K, Crystal 2 | 364.9 J/K/mol and 365.7 J/K/mol
428.6 K, Crystal 2 | 378.1 J/K/mol
438.5 K, Crystal 2 | 381.3 J/K/mol and 383.5 J/K/mol
448.5 K, Crystal 2 | 391.9 J/K/mol and 392.5 J/K/mol
458.4 K, Crystal 2 | 403 J/K/mol
468.4 K, Crystal 2 | 409.4 J/K/mol and 411.7 J/K/mol
478.3 K, Crystal 2 | 417.9 J/K/mol
488.2 K, Crystal 2 | 426.2 J/K/mol
498.2 K, Crystal 2 | 438.5 J/K/mol
508.1 K, Crystal 2 | 444.3 J/K/mol
518.1 K, Crystal 2 | 454.5 J/K/mol
528 K, Crystal 2 | 459.9 J/K/mol
538 K, Crystal 2 | 474.1 J/K/mol
547.9 K, Crystal 2 | 479.3 J/K/mol
557.8 K, Crystal 2 | 493.4 J/K/mol
647.32 K, Liquid | 505.18 J/K/mol
657.27 K, Liquid | 509.31 J/K/mol
667.21 K, Liquid | 513.42 J/K/mol

Conditions | Molar enthalpy of transition or fusion, Crystal 1 [kcal/mol] | Molar enthalpy of transition or fusion, Crystal 2 [kcal/mol] | Molar enthalpy of transition or fusion, Crystal 3 [kcal/mol] | Normal melting temperature, Crystal 1 [°C] | Triple point temperature, Crystal 2 [K] | Triple point temperature, Crystal 3 [K]
[2] | 8.8 | 0.287 | 0.0263 | – | – | –
[3] | – | – | – | 353.1 | 581.9 | 398.1

c1ccc2cc3cc4cc5ccccc5cc4cc3cc2c1 [2,3:6,7-dibenzanthracene]
[1], Crystal
Conditions | molar heat capacity at constant pressure
258.1 K | 264.5 J/K/mol and 265.5 J/K/mol and 267.2 J/K/mol
268.3 K | 275.7 J/K/mol and 277.2 J/K/mol and 277.1 J/K/mol
278.5 K | 288.9 J/K/mol and 287.1 J/K/mol and 287.5 J/K/mol
288.7 K | 299.7 J/K/mol and 299.2 J/K/mol
298.9 K | 311.6 J/K/mol and 311.5 J/K/mol and 311 J/K/mol
309.1 K | 322.1 J/K/mol and 322.4 J/K/mol and 322.3 J/K/mol
309.2 K | 324.4 J/K/mol
319.2 K | 338.9 J/K/mol
319.4 K | 332.5 J/K/mol and 333.2 J/K/mol and 332.1 J/K/mol
329.6 K | 345.7 J/K/mol and 346.5 J/K/mol and 344.5 J/K/mol
339.8 K | 356.2 J/K/mol and 354.9 J/K/mol and 355.1 J/K/mol
350 K | 365.5 J/K/mol and 367.2 J/K/mol and 366 J/K/mol
359 K | 384.6 J/K/mol
368.9 K | 394.9 J/K/mol
378.9 K | 406 J/K/mol
388.8 K | 411.4 J/K/mol
398.7 K | 427.1 J/K/mol
408.7 K | 425.7 J/K/mol
418.6 K | 436.8 J/K/mol
428.6 K | 450.1 J/K/mol
438.5 K | 457.6 J/K/mol
448.5 K | 466.7 J/K/mol
458.4 K | 476.5 J/K/mol
468.3 K | 481.6 J/K/mol
478.3 K | 497.2 J/K/mol
488.2 K | 501.9 J/K/mol
498.2 K | 509.1 J/K/mol
508.1 K | 518.2 J/K/mol
518.1 K | 527.8 J/K/mol
528 K | 529.1 J/K/mol
537.9 K | 549.1 J/K/mol
547.9 K | 552.3 J/K/mol
557.8 K | 558.6 J/K/mol
567.8 K | 566.7 J/K/mol
577.7 K | 575.7 J/K/mol
587.7 K | 578.8 J/K/mol
597.6 K | 592.5 J/K/mol
